The results in this text go back to patent US20250375460A1, “STAT DEGRADERS AND USES THEREOF” (Kymera Therapeutics, Inc., priority 2022, published 2025).

T1 sequence (P40763 whole entry): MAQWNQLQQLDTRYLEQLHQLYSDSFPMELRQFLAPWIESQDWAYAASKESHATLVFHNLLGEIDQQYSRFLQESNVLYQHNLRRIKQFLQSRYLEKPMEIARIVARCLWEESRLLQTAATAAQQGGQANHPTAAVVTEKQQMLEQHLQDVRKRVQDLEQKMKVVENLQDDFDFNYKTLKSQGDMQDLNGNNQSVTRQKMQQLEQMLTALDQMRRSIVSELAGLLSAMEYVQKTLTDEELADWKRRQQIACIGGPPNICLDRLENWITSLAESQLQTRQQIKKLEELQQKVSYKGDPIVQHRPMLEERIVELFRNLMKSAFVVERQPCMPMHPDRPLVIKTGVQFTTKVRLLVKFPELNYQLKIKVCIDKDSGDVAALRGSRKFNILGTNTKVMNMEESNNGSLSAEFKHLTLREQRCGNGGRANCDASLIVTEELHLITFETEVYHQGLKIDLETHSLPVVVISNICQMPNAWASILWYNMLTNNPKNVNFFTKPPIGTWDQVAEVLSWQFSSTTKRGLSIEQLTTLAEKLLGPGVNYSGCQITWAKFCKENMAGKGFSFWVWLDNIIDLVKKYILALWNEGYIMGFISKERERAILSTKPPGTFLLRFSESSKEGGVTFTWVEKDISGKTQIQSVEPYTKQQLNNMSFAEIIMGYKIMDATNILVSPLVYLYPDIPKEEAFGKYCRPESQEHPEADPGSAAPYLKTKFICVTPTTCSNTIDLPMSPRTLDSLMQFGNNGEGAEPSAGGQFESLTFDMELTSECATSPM

The assay has as its target T1, STAT3 (Homo sapiens, UniProt P40763).
T1 construct: expressed in transfected cells; host or cells: A549
Kind of assay: STAT3 HiBiT degradation assay in transfected A549 cells. The format is cell-based. Conditions: 24 h compound incubation, Nano-Glo HiBiT lytic detection, read-out: STAT3 HiBiT A549 degradation 24 h: Average external-Abs DC50. As for the experimental part:
Compound preparation and Cell seeding: The transfected A549 cells were harvested from dish into cell culture medium and cell numbers counted. Cells were diluted with culture medium to the desired density and 30 μL of cell suspension (about 2000 cells/well) were added into each well of a 384-well cell culture plate as designated and transferred into 37° C. 5% CO2 incubator for 24 h. Compounds were dissolved to 10 mM stock solution and 12 μL of the stock solution was transferred to a 384 LDV-plate. 3 fold, 10-point dilution was performed by transferring 4 μL compound into 8 μL DMSO using a TECAN (EVO200) liquid handler. 30 μL of diluted compound from compound source plate was transferred into the cell plate as designated by using Echo550 and transferred into 37° C. 5% CO2 incubator for 24 h.
Detection: Plates were removed from incubators and equilibrated at room temperature for 15 minutes. Nano-Glo Hibit Lytic Detection reagent (Promega Cat #N3040) was thawed and equilibrated to room temperature before the experiment. 30 μL of Nano-Glo Hibit Lytic Detection reagent was added into each well to be detected. The plates were held at room temperature for 10 min followed by reading on EnSpire.
Data analysis: The remaining activity was calculated following the formula: Remaining Activity(%)=100%×(Lumsample−LumNC)/(LumPC−LumNC). Calculate the IC50 by fitting the curve using Xlfit (v5.3.1.3), equation 201: fit=(A+((B−A)/(1+((x/C)^D)))); A: Bottom; B: Top; C: IC50; and D: Slope.
The letter codes for STAT3 DC50 include: A (<0.001 μM), B (0.001-0.01 μM), C (0.01-0.1 μM), and D (>0.1 μM).
For orientation: The HiBiT peptide binds its large partner to form an active luciferase.
The term DC50 denotes the concentration giving 50% degradation. As for `C#Cc1ccc([C@H](C)NC(=O)[C@@H]2C[C@@H](O)CN2C(=O)[C@@H](c2cc(OCCCc3cccc(OC[C@H](CCC(N)=O)NC(=O)[C@@H]4CC[C@@H]5CCN(C(C)=O)C[C@H](NC(=O)c6cc7cc(C(=O)P(=O)(O)O)ccc7[nH]6)C(=O)N54)c3Cl)no2)C(C)C)cc1` [I-1], the DC50 was below 1 nM.

With `CC(=O)N1CC[C@H]2CC[C@@H](C(=O)N[C@@H](CCC(N)=O)COc3cccc(CCCOc4cc([C@@H](C(=O)N5C[C@H](O)C[C@H]5C(=O)N[C@@H](C)c5ccc(-c6scnc6C)cc5)C(C)C)on4)c3Cl)N2C(=O)[C@@H](NC(=O)c2cc3cc(C(=O)P(=O)(O)O)ccc3[nH]2)C1` [I-2], the DC50 lay within 10 to 100 nM.

Regarding `C#Cc1ccc(CNC(=O)[C@@H]2C[C@@H](O)CN2C(=O)[C@@H](c2cc(OCCCc3cccc(OC[C@H](CCC(N)=O)NC(=O)[C@@H]4CC[C@@H]5CCN(C(C)=O)C[C@H](NC(=O)c6cc7cc(C(=O)P(=O)(O)O)ccc7[nH]6)C(=O)N54)c3Cl)no2)C(C)C)cc1` [I-3], the DC50 is below 1 nM. Next, `C#Cc1ccc([C@H](C)NC(=O)[C@@H]2C[C@@H](O)CN2C(=O)[C@@H](NC(=O)CCCc2cccc(OC[C@H](CCC(N)=O)NC(=O)[C@@H]3CC[C@@H]4CCN(C(C)=O)C[C@H](NC(=O)c5cc6cc(C(=O)P(=O)(O)O)ccc6[nH]5)C(=O)N43)c2Cl)C(C)(C)C)cc1` [I-4]: 1 to 10 nM.

`C#Cc1ccc(CNC(=O)[C@@H]2C[C@@H](O)CN2C(=O)[C@@H](NC(=O)CCCc2cccc(OC[C@H](CCC(N)=O)NC(=O)[C@@H]3CC[C@@H]4CCN(C(C)=O)C[C@H](NC(=O)c5cc6cc(C(=O)P(=O)(O)O)ccc6[nH]5)C(=O)N43)c2Cl)C(C)(C)C)cc1` [I-5]: the DC50 fell in the range of 1 to 10 nM.

In the case of `C#Cc1ccc(CNC(=O)[C@@H]2C[C@@H](O)CN2C(=O)[C@@H](c2cc(OCCCc3cccc(OC[C@H](CCC(N)=O)NC(=O)[C@@H]4CC[C@@H]5CCN(C(C)=O)C[C@H](NC(=O)c6cc7cc(C(=O)P(=O)(O)O)ccc7[nH]6)C(=O)N54)c3F)no2)C(C)C)cc1` [I-7], the DC50 was below 1 nM.

In the case of `C#Cc1ccc([C@H](C)NC(=O)[C@@H]2C[C@@H](O)CN2C(=O)[C@@H](NC(=O)CCCc2cccc(OC[C@H](CCC(N)=O)NC(=O)[C@@H]3CC[C@@H]4CCN(C(C)=O)C[C@H](NC(=O)c5cc6cc(C(=O)P(=O)(O)O)ccc6[nH]5)C(=O)N43)c2F)C(C)(C)C)cc1` [I-8], the DC50 was 1 to 10 nM. For `C#Cc1ccc(CNC(=O)[C@@H]2C[C@@H](O)CN2C(=O)[C@@H](NC(=O)CCCc2cccc(OC[C@H](CCC(N)=O)NC(=O)[C@@H]3CC[C@@H]4CCN(C(C)=O)C[C@H](NC(=O)c5cc6cc(C(=O)P(=O)(O)O)ccc6[nH]5)C(=O)N43)c2F)C(C)(C)C)cc1` [I-9], the DC50 was in the range of 1 to 10 nM. Next, `C#Cc1ccc([C@H](C)NC(=O)[C@@H]2C[C@@H](O)CN2C(=O)[C@@H](c2cc(OCCCc3cccc(OC[C@H](CCC(N)=O)NC(=O)[C@@H]4CC[C@@H]5CCN(C(C)=O)C[C@H](NC(=O)c6cc7cc(C(=O)P(=O)(O)O)ccc7[nH]6)C(=O)N54)c3C)no2)C(C)C)cc1` [I-10]: 1 to 10 nM. Next, `C#Cc1ccc([C@H](C)NC(=O)[C@@H]2C[C@@H](O)CN2C(=O)[C@H](c2cc(OCCCc3cccc(OC[C@H](CCC(N)=O)NC(=O)[C@@H]4CC[C@@H]5CCN(C(C)=O)C[C@H](NC(=O)c6cc7cc(C(=O)P(=O)(O)O)ccc7[nH]6)C(=O)N54)c3C)no2)C(C)C)cc1` [I-11]: above 100 nM; `C#Cc1ccc([C@H](C)NC(=O)[C@@H]2C[C@@H](O)CN2C(=O)[C@@H](NC(=O)CCCc2cccc(OC[C@H](CCC(N)=O)NC(=O)[C@@H]3CC[C@@H]4CCN(C(C)=O)C[C@H](NC(=O)c5cc6cc(C(=O)P(=O)(O)O)ccc6[nH]5)C(=O)N43)c2C)C(C)(C)C)cc1` [I-13]: 10 to 100 nM. Next, `C#Cc1ccc(CNC(=O)[C@@H]2C[C@@H](O)CN2C(=O)[C@@H](NC(=O)CCCc2cccc(OC[C@H](CCC(N)=O)NC(=O)[C@@H]3CC[C@@H]4CCN(C(C)=O)C[C@H](NC(=O)c5cc6cc(C(=O)P(=O)(O)O)ccc6[nH]5)C(=O)N43)c2C)C(C)(C)C)cc1` [I-14]: 1 to 10 nM.

As to `CC(=O)N1CC[C@H]2CC[C@@H](C(=O)N[C@@H](CCC(N)=O)COc3cccc(CCCOc4cc([C@H](C(=O)N5C[C@H](O)C[C@H]5C(=O)N[C@@H](C)c5ccc(-c6scnc6C)cc5)C(C)C)on4)c3F)N2C(=O)[C@@H](NC(=O)c2cc3cc(C(=O)P(=O)(O)O)ccc3[nH]2)C1` [I-15], the DC50 is below 1 nM. Next, `CC(=O)N1CC[C@H]2CC[C@@H](C(=O)N[C@@H](CCC(N)=O)COc3cccc(CCCOc4cc([C@@H](C(=O)N5C[C@H](O)C[C@H]5C(=O)N[C@@H](C)c5ccc(-c6scnc6C)cc5)C(C)C)on4)c3C)N2C(=O)[C@@H](NC(=O)c2cc3cc(C(=O)P(=O)(O)O)ccc3[nH]2)C1` [I-20]: 10 to 100 nM; `CC(=O)N1CC[C@H]2CC[C@@H](C(=O)N[C@@H](CCC(N)=O)COc3cccc(CCCOc4cc([C@H](C(=O)N5C[C@H](O)C[C@H]5C(=O)NCc5ccc(-c6scnc6C)cc5)C(C)C)on4)c3C)N2C(=O)[C@@H](NC(=O)c2cc3cc(C(=O)P(=O)(O)O)ccc3[nH]2)C1` [I-21]: below 1 nM; `CC(=O)N1CC[C@H]2CC[C@@H](C(=O)N[C@@H](CCC(N)=O)COc3cccc(CCCOc4cc([C@@H](C(=O)N5C[C@H](O)C[C@H]5C(=O)NCc5ccc(-c6scnc6C)cc5)C(C)C)on4)c3C)N2C(=O)[C@@H](NC(=O)c2cc3cc(C(=O)P(=O)(O)O)ccc3[nH]2)C1` [I-22]: 10 to 100 nM. Next, `CC(=O)N1CC[C@H]2CC[C@@H](C(=O)N[C@@H](CCC(N)=O)COc3cccc(CCCOc4cc([C@H](C(=O)N5C[C@H](O)C[C@H]5C(=O)N[C@@H](C)c5ccc(-c6scnc6C)cc5)C(C)C)on4)c3Cl)N2C(=O)[C@@H](NC(=O)c2cc3cc(C(=O)P(=O)(O)O)ccc3[nH]2)C1` [I-23]: below 1 nM; `CC(=O)N1CC[C@@H]2CC[C@H](C(=O)N[C@@H](CCC(N)=O)COc3cccc(CCCCC(=O)N[C@H](C(=O)N4C[C@H](O)C[C@H]4C(=O)NCc4ccc(-c5scnc5C)cc4)C(C)(C)C)c3Cl)N2C(=O)[C@H](NC(=O)c2cc3cc(C(=O)P(=O)(O)O)ccc3[nH]2)C1` [I-24]: above 100 nM; `CCOP(=O)(OCC)C(=O)c1ccc2[nH]c(C(=O)N[C@H]3CN(C(C)=O)CC[C@H]4CC[C@@H](C(=O)N[C@@H](CCC(N)=O)COc5cccc(CCCOc6cc([C@H](C(=O)N7C[C@H](O)C[C@H]7C(=O)NCc7ccc(-c8scnc8C)cc7)C(C)C)on6)c5Cl)N4C3=O)cc2c1` [I-25]: 10 to 100 nM.

As for `CNC(=O)N1CC[C@H]2CC[C@@H](C(=O)N[C@@H](CCC(N)=O)COc3cccc(CCCC(=O)N[C@H](C(=O)N4C[C@H](O)C[C@H]4C(=O)N[C@@H](C)c4ccc(-c5scnc5C)cc4)C(C)(C)C)c3Cl)N2C(=O)[C@@H](NC(=O)c2cc3cc(C(F)(F)P(=O)(O)O)ccc3s2)C1` [I-26], the DC50 is above 100 nM. Next, `CC(=O)N1CC[C@H]2CC[C@@H](C(=O)N[C@@H](CCC(N)=O)COc3cccc(CCCOc4cc([C@H](C(=O)N5C[C@H](O)C[C@H]5C(=O)NCc5ccc(-c6scnc6C)cc5)C(C)C)on4)c3Cl)N2C(=O)[C@@H](NC(=O)c2cc3cc(C(=O)P(=O)(O)O)ccc3[nH]2)C1` [I-27]: below 1 nM; `CC(=O)N1CC[C@H]2CC[C@@H](S(=O)(=O)N[C@@H](CCC(N)=O)COc3cccc(CCCC(=O)N[C@H](C(=O)N4C[C@H](O)C[C@H]4C(=O)N[C@@H](C)c4ccc(-c5scnc5C)cc4)C(C)(C)C)c3Cl)N2C(=O)[C@@H](NC(=O)c2cc3cc(C(=O)P(=O)(O)O)ccc3[nH]2)C1` [I-30]: 1 to 10 nM.
